Laboratory results taken from ChEMBL document CHEMBL1681663, “Design and synthesis of novel tetrahydronaphthyl azoles and related cyclohexyl azoles as antileishmanial agents” (Bioorg Med Chem Lett, 2011).
≈ marks a conversion by molar mass, not a printed value. Calls of active or inactive are those of the source. The calls are words filed in the database; no cut-off is given here.

What was measured:
[1] = tested on: Leishmania donovani; test: Antileishmanial activity against promastigotes of Leishmania donovani at 10 ug/ml; format: functional
[2] = tested on: Leishmania donovani; test: Antileishmanial activity against amastigotes of Leishmania donovani; format: functional, organism-based
[3] = Cytotoxicity against mouse J774A1 cells by MTT assay; format: cell-based, J774.A1
[4] = (§1) Selectivity index, ratio of CC50 for mouse J774A1 cells to IC50 for amastigotes of Leishmania donovani; format: functional, J774.A1
[5] = tested on: Leishmania donovani; test: Antileishmanial activity against amastigotes of Leishmania donovani at 10 ug/ml; format: functional, organism-based
[6] = tested on: Leishmania donovani; test: Antileishmanial activity against Leishmania donovani infected in Hamster assessed as inhibition of parasites growth at 50 mg/kg, ip for 5 times; format: functional; settings: for inhibition in vivo at 50 mg/kg: route intraperitoneal
[7] = tested on: J774.A1; test: as §1; format: functional

| Molecule | inhibition at 10 µg/mL [1] [%] | IC50 [2] [µg/mL] | CC50 [3] [µg/mL] | Ratio CC50/IC50 [4] | inhibition [5] | inhibition in vivo at 50 mg/kg [6] [%] | Ratio CC50/IC50 [7] | inhibition [6] [%] |
| --- | --- | --- | --- | --- | --- | --- | --- | --- |
| O=[N+]([O-])c1ccc(O[C@H]2CCCC[C@@H]2n2ccnc2)c(F)c1 (racemic) | 95.7 | 2.15 (≈ 7.04 µM) | 14.2 (≈ 46.7 µM) | 6.62 |  |  |  |  |
| O[C@H]1CCc2ccccc2[C@@H]1n1ccnc1 (racemic) | 60 | > 50 | > 100 | 2 |  |  |  |  |
| O[C@H]1CCc2ccccc2[C@@H]1n1ccnn1 (racemic) | 90.4 |  | 35.6 (≈ 165 µM) |  | inactive |  |  |  |
| FC(F)(F)c1ccc(O[C@H]2CCc3ccccc3[C@@H]2n2ccnc2)cc1 (racemic) | 60 |  | 52.5 (≈ 146 µM) |  | inactive |  |  |  |
| O=[N+]([O-])c1ccc(O[C@H]2CCc3ccccc3[C@@H]2n2ccnc2)cc1 (racemic) | 94.9 | 4.53 (≈ 13.5 µM) | 21.4 (≈ 63.9 µM) | 4.73 |  |  |  |  |
| O=[N+]([O-])c1ccc(O[C@H]2CCc3ccccc3[C@@H]2n2ccnc2)c(C(F)(F)F)c1 (racemic) | 91.2 | 1.59 (≈ 3.94 µM) | 10.7 (≈ 26.5 µM) | 6.73 |  |  |  |  |
| O=[N+]([O-])c1ccc(O[C@H]2CCc3ccccc3[C@@H]2n2ccnc2)c(F)c1 (racemic) | 100 | 6.52 (≈ 18.5 µM) | 32.1 (≈ 90.9 µM) | 4.92 |  |  |  |  |
| O=[N+]([O-])c1cc(C(F)(F)F)ccc1O[C@H]1CCc2ccccc2[C@@H]1n1ccnc1 (racemic) | 99.6 | 3.58 (≈ 8.88 µM) | 20.1 (≈ 49.8 µM) | 5.61 |  |  |  |  |
| Clc1ccc(Cl)c(CO[C@H]2CCc3ccccc3[C@@H]2n2ccnc2)c1 (racemic) | 100 | 0.64 (≈ 1.71 µM) | 22.3 (≈ 59.6 µM) | 34.78 |  | 83.3 |  |  |
| Clc1cccc(CO[C@H]2CCc3ccccc3[C@@H]2n2ccnc2)c1 (racemic) | 100 | 1.34 (≈ 3.95 µM) | 15.5 (≈ 45.6 µM) | 11.53 |  | 32.1 |  |  |
| O=[N+]([O-])c1ccc(O[C@H]2CCc3ccccc3[C@@H]2n2ccnn2)cc1 (racemic) | 99.6 |  | > 100 |  | inactive |  |  |  |
| O=[N+]([O-])c1ccc(O[C@H]2CCc3ccccc3[C@@H]2n2ccnn2)c(F)c1 (racemic) | 100 |  | > 100 |  | inactive |  |  |  |
| Clc1cccc(CO[C@H]2CCc3ccccc3[C@@H]2n2ccnn2)c1 (racemic) | 100 | 3.01 (≈ 8.86 µM) | 30.2 (≈ 88.9 µM) | 10.03 |  |  |  |  |
| FC(F)(F)c1ccc(O[C@H]2CCCC[C@@H]2n2ccnc2)cc1 (racemic) | 99.8 |  |  |  | inactive |  |  |  |
| O=[N+]([O-])c1ccc(O[C@H]2CCCC[C@@H]2n2ccnc2)cc1 (racemic) | 98.6 | 2.23 (≈ 7.76 µM) | 8.27 (≈ 28.8 µM) | 3.7 |  |  |  |  |
| O=[N+]([O-])c1cc(C(F)(F)F)ccc1O[C@H]1CCCC[C@@H]1n1ccnc1 (racemic) | 99 | 5.07 (≈ 14.3 µM) | 22.1 (≈ 62.3 µM) | 4.36 |  |  |  |  |
| Clc1cccc(CO[C@H]2CCCC[C@@H]2n2ccnc2)c1 (racemic) | 96.9 | 1.4 (≈ 4.83 µM) | 12.8 (≈ 43.9 µM) | 9.1 |  |  |  |  |
| Clc1ccc(Cl)c(CO[C@H]2CCCC[C@@H]2n2ccnc2)c1 (racemic) | 89.6 | 4.03 (≈ 12.4 µM) | 27.2 (≈ 83.5 µM) | 6.73 |  |  |  |  |
| Clc1ccc(CO[C@H]2CCCC[C@@H]2n2ccnc2)c(Cl)c1 (racemic) | 99.5 | 2.44 (≈ 7.5 µM) | 3.43 (≈ 10.5 µM) | 1.41 |  |  |  |  |
| NC[C@@H]1O[C@H](O[C@H]2[C@@H](O)[C@H](O[C@@H]3[C@@H](O)[C@H](N)C[C@H](N)[C@H]3O[C@H]3O[C@H](CO)[C@@H](O)[C@H](O)[C@H]3N)O[C@@H]2CO)[C@H](N)[C@@H](O)[C@@H]1O [PAROMOMYCIN] | 124 | 24.8 (≈ 40.3 µM) | 53.3 (≈ 86.6 µM) | 2.15 |  | 46.7 |  |  |
| sodium stibogluconate |  |  |  |  |  |  | 6.38 | 92.2 |
